Test results as given in article PMC13379085 (PLOS Neglected Tropical Diseases, 2026).

How the values were obtained:
THP-1 macrophages = assay: MTT viability of THP-1 macrophages (host cell cytotoxicity); type: cell-based; settings: 72 hr incubation up to 300µM
Description: Human monocytes, THP-1 (ATCC, TIB002) were used as host cells for Leishmania infection and to assess drug cytotoxicity. The cells were cultured at 37C, 5% CO2 in RPMI medium (ATCC) supplemented with 10% FBS, 1% Penicillin/Streptomycin and 0.05 mM of β-mercaptoethanol. Cells were used in experiments up to passage 10.
Effect of the compounds on THP-1 cell viability measured using thiazolyl blue tetrazolium bromide which measures cell metabolic activity (MTT). […] Macrophages were then treated with compounds resuspended in RPMI media (1–50 µM) for 24 hours. Media was replaced with thiazolyl blue tetrazolium bromide solubilized in RPMI media (0.5 mg/mL) and incubated at 37°C for 2 hours. The reduced formazan crystals were solubilized with isopropyl alcohol and the absorbance of the resulting solution was measured at 560 nm with a background subtraction at 670 nm. […] This process was repeated with a 72-hr incubation and extended concentration range (1–300 µM) for select compounds.

[1] = tested on: Intracellular L. mexicana amastigotes; assay: microbe, parasite or virus in culture; type: cell-based, Leishmania mexicana; settings: bone marrow derived macrophages, Giemsa staining, 72-hour incubation
Description: Bone marrow derived macrophages (BMDMs) were isolated from BALB/c mice and cultured as previously described. […] Completely differentiated BMDMs are obtained after 7 days of culture with media change every 2 days. Harvested cells are seeded onto 10 mm glass cover slips at 5 x 10^5 cells/ well of a 24 well plate in DMEM media (without LCM) and allowed to adhere overnight. BMDM cells are then infected overnight with LV82 L. donovani or L. mexicana (NR-51210) at a multiplicity of infection of 10. After infection, cells were washed three times with fresh media to remove extracellular promastigotes and treated with compounds for a 72-hour incubation. BMDM cells were then washed with phosphate buffered saline, fixed with ice-cold methanol, and stained with Giemsa (5% v/v in water). The cover slips with stained cells are mounted onto glass slides and imaged on EVOS XL (100X, Thermo Fisher Scientific). Leishmania amastigotes per 100 macrophages were determined in a blinded manner.

[2] = tested on: Extracellular L. mexicana promastigotes; assay: Resazurin viability assay of extracellular L. mexicana promastigotes; type: cell-based, Leishmania mexicana
Description: The effect of compounds on extracellular promastigotes was evaluated using a resazurin-based assay as described previously. In short, late log phase Leishmania promastigotes were seeded in a 96 well plate at 1 x 10^5 parasites per well and treated with drugs (0.5 – 200 µM) for 72 hours at 25°C. Ten microliters of Resazurin (0.02% w/v) were added to the treated parasites to achieve a final concentration of 0.002% w/v and incubated for 24 hours. Viability of the promastigotes was assessed by fluorescence (excitation 544 nm, emission 590 nm, SpectraMax M2, Molecular Devices).

lysozyme = molecular target: T1, lysozyme (Homo sapiens, UniProt P61626); assay: Thermal proteome profiling (TPP) in Leishmania infected macrophage lysate; type: binding; set-up: endogenous in cells; host or cells: PMA-differentiated THP-1 macrophages infected with L. mexicana (lysate); settings: 100 µM 197 in L. mexicana infected THP-1 lysate
T1 sequence (P61626 19-148): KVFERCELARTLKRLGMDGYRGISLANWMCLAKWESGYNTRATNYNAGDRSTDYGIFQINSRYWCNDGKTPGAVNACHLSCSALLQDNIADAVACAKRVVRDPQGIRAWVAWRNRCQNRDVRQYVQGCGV
Description: To generate cell lysate, ten million THP-1 cells were plated overnight in a 10 cm dish, then differentiated with 150 nM phorbol 12-myristate 13-acetate (PMA) for 72 hours. The resulting macrophages were infected with L. mexicana promastigotes at a multiplicity of infection of 10 and incubated for 18 hours. After infection, cells were washed three times with PBS to remove extracellular promastigotes. Cells were then collected by scraping and pelleted with centrifugation. The cell pellet was resuspended in phosphate buffered saline and subjected to five freeze-thaw cycles. Samples were centrifuged 14,000g x 10 minutes to remove cellular debris. Protein concentration of supernatant was determined by BCA assay and cell lysate was stored at -80 ° C until further use.
The cell lysate was divided into two portions. One portion was spiked with 197 in DMSO to generate the ‘with ligand’ sample; and the other portion was spiked with DMSO to generate the ‘without ligand’ sample. The final concentration of 197 in the ‘with ligand’ sample was 100 µM, and both the without and with ligand samples contained 1% DMSO. The with and without samples were each subjected five replicate one-pot TPP analyses like that previously described. […]

**Q.** With `O=C(CNCc1cccc(F)c1)Nc1ccc(-n2cc(C(F)(F)F)nc2-c2ccc(-c3ccc(C(F)(F)F)cc3)cc2)cc1` [Compound 197] as the compound, how does the “reduction in macrophage viability” value (THP-1 macrophages) read?
**A.** Its value is “Neither compound had any reduction”.

**Q.** And the IC50 ([1]; Leishmania mexicana, Macrophage, 72 h)?
**A.** The IC50 was < 2 µM.

**Q.** And the IC50 [1]?
**A.** Its IC50 is 1.7 µM.

**Q.** And the “effect on L. mexicana extracellular promastigote viability” value [2]?
**A.** Its value is “no effect”.

**Q.** And the MIC50 ([2]; Leishmania mexicana, 72-hour incubation)?
**A.** The MIC50 was > 200 µM.

**Q.** What about the “TPP z-score for lysozyme” value (lysozyme) of the same compound?
**A.** The value was 4.32.
